From patent US10730881B2, “Fused pyrimidine derivatives” (Hoffmann-La Roche Inc., priority 2016, dated 2020)

Biological target: γ-secretase (Homo sapiens, UniProt P49768)
Assay: Cellular γ-secretase assay (inhibition of Aβ42 secretion, AlphaLisa)
Assay type: cell-based
Details: human neuroglioma H4 cells overexpressing human APP695 Swedish double mutation, 24 hr compound incubation
Protocol: Human neuroglioma H4 cells overexpressing human APP695 with the Swedish double mutation (K595N/M596L) were plated at 30,000 cells/well/100 μl in 96-well plates in IMDM media containing 10% FCS, 0.2 mg/l Hygromycin B and incubated at 37° C., 5% CO2. 3-4 hr post plating, compounds are a diluted in media and 50 μl is added as 1.5-fold concentrate to achieve the final concentration. Compound incubation is performed for 24 hr. Final doses typically range from 4 μM down to 0.0013 μM in half-log steps resulting in a eight point dose response curve. Appropriate controls using vehicle only and reference compound were applied to this assay. The final concentration of Me2SO was 0.4%. After incubation at 37° C., 5% CO2, the supernatant was subjected to quantification of secreted Aβ42 by the means of an AlphaLisa assay kit (Human Amyloid beta 1-42 Kit: Cat # A[…], Perkin Elmer). 20 μl of the cell culture supernatant was transferred to an assay plate. […] The assay plate was then read on a Paradigm AlphaLisa Reader using the build-in program with excitation at 680 nm and emission at 570 nm. The measured signals were then used to calculate IC50 values for inhibition of Aβ42 secretion by nonlinear regression fit analysis using XLfit 5.3 software (IDBS).

`CNc1nc(N[C@@H]2[C@@H]3CC[C@H]2CN(c2cc(C)ncn2)C3)nc2c1C(C)(C)CN2C1CC(F)(F)C1` [Example 13, 7-(3,3-Difluorocyclobutyl)-N4,5,5-trimethyl-N2-((1R,5S,8s)-3-(6-methylpyrimidin-4-yl)-3-azabicyclo[3.2.1]octan-8-yl)-6,7-dihydro-5H-pyrrolo[2,3-d]pyrimidine-2,4-diamine] showed an EC50 of 36 nM.
